Reference: PubChem BioAssay (NCI)
Several values for one entry are separate records, joined by “and”; a condition that tells them apart may be missing. Equal values may be shown once.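 Exposure lasted 48 hours, with cells grown in 96-well plates and compounds tested at five concentrations. GI50 = concentration required for 50% inhibition of growth. TGI: concentration producing complete growth inhibition.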

Experiments:
Assay in all cases: NCI-60 cell line screen, 48 h; in the data active = GI50 below about 0.43 µM; inactive = the rest
TK-10 renal = test system: TK-10 renal
MDA-MB-435 = test system: MDA-MB-435
HCT-15 colon = test system: HCT-15 colon
SN12C renal = test system: SN12C renal
NCI-H23 lung = test system: NCI-H23 lung
ACHN renal = test system: ACHN renal
NCI-H460 lung = test system: NCI-H460 lung
DU-145 prostate = test system: DU-145 prostate
A549 NSCLC = test system: A549 NSCLC
UO-31 renal = test system: UO-31 renal
SF-539 CNS = test system: SF-539 CNS
U251 CNS = test system: U251 CNS
EKVX NSCLC = test system: EKVX NSCLC
RPMI-8226 leukemia = test system: RPMI-8226 leukemia
OVCAR-4 ovarian = test system: OVCAR-4 ovarian
KM12 colon = test system: KM12 colon
K-562 leukemia = test system: K-562 leukemia
OVCAR-8 ovarian = test system: OVCAR-8 ovarian
UACC-257 melanoma = test system: UACC-257 melanoma
SK-MEL-5 melanoma = test system: SK-MEL-5 melanoma
NCI/ADR-RES ovarian = test system: NCI/ADR-RES ovarian
MCF7 breast = test system: MCF7 breast
HL-60(TB) leukemia = test system: HL-60(TB) leukemia
OVCAR-5 ovarian = test system: OVCAR-5 ovarian
HOP-92 NSCLC = test system: HOP-92 NSCLC
HOP-62 NSCLC = test system: HOP-62 NSCLC
MOLT-4 leukemia = test system: MOLT-4 leukemia
NCI-H226 lung = test system: NCI-H226 lung
RXF 393 renal = test system: RXF 393 renal
SW-620 colon = test system: SW-620 colon
T-47D breast = test system: T-47D breast
BT-549 breast = test system: BT-549 breast
CCRF-CEM leukemia = test system: CCRF-CEM leukemia
SK-OV-3 ovarian = test system: SK-OV-3 ovarian
HCT-116 colon = test system: HCT-116 colon
HT29 colon = test system: HT29 colon
786-0 renal = test system: 786-0 renal
M14 melanoma = test system: M14 melanoma
HS 578T breast = test system: HS 578T breast
IGROV1 ovarian = test system: IGROV1 ovarian
PC-3 prostate = test system: PC-3 prostate
OVCAR-3 ovarian = test system: OVCAR-3 ovarian
SF-268 CNS = test system: SF-268 CNS
COLO 205 colon = test system: COLO 205 colon
LOX IMVI melanoma = test system: LOX IMVI melanoma
SF-295 CNS = test system: SF-295 CNS
MALME-3M melanoma = test system: MALME-3M melanoma
CAKI-1 renal = test system: CAKI-1 renal
MDA-MB-231 breast = test system: MDA-MB-231 breast
NCI-H522 lung = test system: NCI-H522 lung
HCC-2998 colon = test system: HCC-2998 colon
SK-MEL-2 melanoma = test system: SK-MEL-2 melanoma
UACC-62 melanoma = test system: UACC-62 melanoma
A498 renal = test system: A498 renal
SK-MEL-28 melanoma = test system: SK-MEL-28 melanoma
SNB-75 CNS = test system: SNB-75 CNS
SNB-19 CNS = test system: SNB-19 CNS
SR leukemia = test system: SR leukemia

c1ccc(-c2[nH]ncc2-c2ccnc(-c3ccc(OCCN4CCOCC4)cc3)c2)nc1
> 25 µM: TGI (TK-10 renal) | TGI (MDA-MB-435) | TGI (HCT-15 colon) | TGI (SN12C renal) | TGI (NCI-H23 lung) | TGI (ACHN renal) | TGI (NCI-H460 lung) | TGI (DU-145 prostate) | TGI (A549 NSCLC) | TGI (UO-31 renal) | TGI (SF-539 CNS) | TGI (U251 CNS) | TGI (EKVX NSCLC) | TGI (RPMI-8226 leukemia) | TGI (OVCAR-4 ovarian) | TGI (KM12 colon) | TGI (K-562 leukemia) | TGI (OVCAR-8 ovarian) | TGI (UACC-257 melanoma) | TGI (SK-MEL-5 melanoma) | TGI (NCI/ADR-RES ovarian) | TGI (MCF7 breast) | TGI (HL-60(TB) leukemia) | TGI (OVCAR-5 ovarian) | TGI (HOP-92 NSCLC) | TGI (HOP-62 NSCLC) | TGI (MOLT-4 leukemia) | TGI (NCI-H226 lung) | TGI (RXF 393 renal) | TGI (SW-620 colon) | TGI (T-47D breast) | TGI (BT-549 breast) | TGI (CCRF-CEM leukemia) | TGI (SK-OV-3 ovarian) | TGI (HCT-116 colon) | TGI (HT29 colon) | TGI (786-0 renal) | TGI (M14 melanoma) | TGI (HS 578T breast) | TGI (IGROV1 ovarian) | TGI (PC-3 prostate) | TGI (OVCAR-3 ovarian) | TGI (SF-268 CNS) | TGI (COLO 205 colon) | TGI (LOX IMVI melanoma) | TGI (SF-295 CNS) | TGI (MALME-3M melanoma) | TGI (CAKI-1 renal) | TGI (MDA-MB-231 breast) | TGI (NCI-H522 lung) | TGI (HCC-2998 colon) | TGI (SK-MEL-2 melanoma) | TGI (UACC-62 melanoma) | TGI (A498 renal) | TGI (SK-MEL-28 melanoma) | TGI (SNB-75 CNS) | TGI (SNB-19 CNS)
inactive: GI50 (TK-10 renal) > 25 µM | GI50 (MDA-MB-435) > 25 µM | GI50 (HCT-15 colon) > 25 µM | GI50 (SN12C renal) > 25 µM | GI50 (NCI-H23 lung) > 25 µM | GI50 (ACHN renal) > 25 µM | GI50 (NCI-H460 lung) > 25 µM | GI50 (DU-145 prostate) > 25 µM | GI50 (A549 NSCLC) > 25 µM | GI50 (UO-31 renal) 24.3 µM | GI50 (SF-539 CNS) > 25 µM | GI50 (U251 CNS) > 25 µM | GI50 (EKVX NSCLC) > 25 µM | GI50 (RPMI-8226 leukemia) > 25 µM | GI50 (OVCAR-4 ovarian) > 25 µM | GI50 (KM12 colon) > 25 µM | GI50 (K-562 leukemia) 13.2 µM | GI50 (OVCAR-8 ovarian) > 25 µM | GI50 (UACC-257 melanoma) > 25 µM | GI50 (SK-MEL-5 melanoma) > 25 µM | GI50 (NCI/ADR-RES ovarian) > 25 µM | GI50 (MCF7 breast) > 25 µM | GI50 (HL-60(TB) leukemia) > 25 µM | GI50 (OVCAR-5 ovarian) > 25 µM | GI50 (HOP-92 NSCLC) > 25 µM | GI50 (HOP-62 NSCLC) > 25 µM | GI50 (MOLT-4 leukemia) > 25 µM | GI50 (NCI-H226 lung) > 25 µM | GI50 (RXF 393 renal) > 25 µM | GI50 (SW-620 colon) > 25 µM | GI50 (T-47D breast) > 25 µM | GI50 (BT-549 breast) > 25 µM | GI50 (CCRF-CEM leukemia) > 25 µM | GI50 (SK-OV-3 ovarian) > 25 µM | GI50 (HCT-116 colon) > 25 µM | GI50 (HT29 colon) > 25 µM | GI50 (786-0 renal) > 25 µM | GI50 (M14 melanoma) > 25 µM | GI50 (HS 578T breast) > 25 µM | GI50 (IGROV1 ovarian) > 25 µM | GI50 (PC-3 prostate) > 25 µM | GI50 (OVCAR-3 ovarian) > 25 µM | GI50 (SF-268 CNS) > 25 µM | GI50 (COLO 205 colon) > 25 µM | GI50 (LOX IMVI melanoma) > 25 µM | GI50 (SF-295 CNS) > 25 µM | GI50 (MALME-3M melanoma) > 25 µM | GI50 (CAKI-1 renal) > 25 µM | GI50 (MDA-MB-231 breast) > 25 µM | GI50 (NCI-H522 lung) > 25 µM | GI50 (HCC-2998 colon) > 25 µM | GI50 (SK-MEL-2 melanoma) > 25 µM | GI50 (UACC-62 melanoma) > 25 µM | GI50 (A498 renal) > 25 µM | GI50 (SK-MEL-28 melanoma) > 25 µM | GI50 (SNB-75 CNS) > 25 µM | GI50 (SNB-19 CNS) > 25 µM

COC(=O)[C@H](Cc1cn(C)cn1)NC(=O)[C@H](CC(=O)OCc1ccccc1)NC(=O)Nc1cc(C(F)(F)F)cc(C(F)(F)F)c1
9.41 µM and 4.34 µM: TGI (SR leukemia)
24.6 µM: TGI (SK-MEL-5 melanoma)
15.7 µM: TGI (K-562 leukemia)
10.4 µM: TGI (MALME-3M melanoma)
24.1 µM: TGI (SNB-75 CNS)
27.8 µM: TGI (CAKI-1 renal)
24.7 µM: TGI (CCRF-CEM leukemia)
28.7 µM: TGI (NCI-H460 lung)
30.7 µM: TGI (NCI-H23 lung) | TGI (KM12 colon)
12.6 µM: TGI (SK-MEL-2 melanoma)
8.9 µM: TGI (LOX IMVI melanoma)
40.7 µM: TGI (HCT-116 colon)
11.3 µM: TGI (M14 melanoma)
25.7 µM: TGI (PC-3 prostate)
18.8 µM: TGI (MDA-MB-435)
inactive: GI50 (SR leukemia) 3.67 µM and 2.04 µM | GI50 (MDA-MB-435) 5.9 µM | GI50 (HCT-15 colon) 17.9 µM | GI50 (SN12C renal) 4.79 µM | GI50 (NCI-H23 lung) 15.8 µM | GI50 (ACHN renal) 10.4 µM | GI50 (NCI-H460 lung) 13.4 µM | GI50 (DU-145 prostate) 6.18 µM | GI50 (A549 NSCLC) 11.6 µM | GI50 (UO-31 renal) 11.5 µM | GI50 (SF-539 CNS) 12.4 µM | GI50 (U251 CNS) 2.61 µM | GI50 (RPMI-8226 leukemia) 4.24 µM | GI50 (OVCAR-4 ovarian) 11.6 µM | GI50 (KM12 colon) 14 µM | GI50 (K-562 leukemia) 4.15 µM | GI50 (OVCAR-8 ovarian) 4.49 µM | GI50 (UACC-257 melanoma) 6.34 µM | GI50 (SK-MEL-5 melanoma) 12.2 µM | GI50 (NCI/ADR-RES ovarian) 17.3 µM | GI50 (MCF7 breast) 3.74 µM | GI50 (HL-60(TB) leukemia) 12.3 µM | GI50 (OVCAR-5 ovarian) 17.2 µM | GI50 (HOP-62 NSCLC) 5.03 µM | GI50 (MOLT-4 leukemia) 17.1 µM | GI50 (NCI-H226 lung) 16.3 µM | GI50 (SW-620 colon) 6.66 µM | GI50 (T-47D breast) 7.38 µM and 4.83 µM | GI50 (BT-549 breast) 12 µM | GI50 (CCRF-CEM leukemia) 9.81 µM | GI50 (SK-OV-3 ovarian) 9.07 µM | GI50 (HCT-116 colon) 12.5 µM | GI50 (HT29 colon) 13.9 µM | GI50 (786-0 renal) 10.9 µM | GI50 (M14 melanoma) 3.38 µM | GI50 (HS 578T breast) 2.8 µM | GI50 (IGROV1 ovarian) 14.5 µM | GI50 (PC-3 prostate) 12.7 µM | GI50 (OVCAR-3 ovarian) 2.5 µM | GI50 (SF-268 CNS) 4.51 µM | GI50 (COLO 205 colon) 3.79 µM | GI50 (LOX IMVI melanoma) 2.96 µM | GI50 (SF-295 CNS) 10.9 µM | GI50 (MALME-3M melanoma) 3.28 µM | GI50 (CAKI-1 renal) 14.1 µM | GI50 (MDA-MB-231 breast) 10.9 µM | GI50 (NCI-H522 lung) 8.53 µM | GI50 (SK-MEL-2 melanoma) 3.89 µM | GI50 (A498 renal) 12.8 µM | GI50 (SK-MEL-28 melanoma) 9.51 µM | GI50 (SNB-75 CNS) 11.8 µM | GI50 (SNB-19 CNS) 13.8 µM
35.6 µM: TGI (NCI/ADR-RES ovarian)
21.1 µM: TGI (SW-620 colon)
25.4 µM: TGI (A498 renal)
23.3 µM: TGI (MDA-MB-231 breast)
25.8 µM: TGI (BT-549 breast)
24 µM: TGI (ACHN renal) | TGI (SF-295 CNS)
18.6 µM: TGI (T-47D breast)
27.1 µM: TGI (OVCAR-4 ovarian) | TGI (HL-60(TB) leukemia)
36.6 µM: TGI (MOLT-4 leukemia)
17.3 µM: TGI (SN12C renal)
6.25 µM: TGI (OVCAR-3 ovarian)
24.2 µM: TGI (UO-31 renal) | TGI (786-0 renal)
19.3 µM: TGI (DU-145 prostate)
28.5 µM: TGI (SNB-19 CNS)
> 100 µM: TGI (HCT-15 colon) | TGI (MCF7 breast)
18.1 µM: TGI (SF-268 CNS)
34.2 µM: TGI (OVCAR-5 ovarian)
25.6 µM: TGI (SF-539 CNS)
29.2 µM: TGI (IGROV1 ovarian)
21.4 µM: TGI (SK-OV-3 ovarian) | TGI (NCI-H522 lung)
19.1 µM: TGI (UACC-257 melanoma)
21.6 µM: TGI (SK-MEL-28 melanoma)
16.9 µM: TGI (OVCAR-8 ovarian) | TGI (HOP-62 NSCLC)
7.85 µM: TGI (U251 CNS)
13.8 µM: TGI (COLO 205 colon)
28.8 µM: TGI (HT29 colon)
34.5 µM: TGI (NCI-H226 lung)
8.09 µM: TGI (HS 578T breast)
17.5 µM: TGI (RPMI-8226 leukemia)
25.9 µM: TGI (A549 NSCLC)
